Measurements as given in PMC12692722, “The Tetrapeptide HAEE Promotes Amyloid-Beta Clearance from the Brain” (International Journal of Molecular Sciences, 2025).
Residues, ends and D or L forms follow the SMILES beside them.

Tests used:
LRP1 = target: T1, LRP1 (Mus musculus, UniProt Q91ZX7); test: Inhibitory assay: blocking antibody to LRP1, Aβ level in bEnd.3 cells; type: cell-based; settings: blocking antibody 10 μg/mL 1 h, Aβ 100 nM + HAEE 20 μM, 2 h, ELISA, n = 3–4
T1 construct: endogenous in cells; host or cells: bEnd.3
Protocol: Cells were incubated with blocking antibodies to LRP or Pgp receptors (10 μg/mL, Santa Cruz Biotechnology, Dallas, TX, USA) for 1 h at +37 °C. […] After 2 h, the cells were washed 3 times with PBS, frozen in liquid nitrogen, and lysed in IP lysis buffer (ServiceBio, Wuhan, China) with the addition of a protease inhibitor (Thermo Fisher Scientific, Waltham, MA, USA) for 1 h at +4 °C with stirring. The cell lysate was centrifuged at 16,000× g, +4 °C, 10 min and the supernatant was collected. The amount of total protein in the lysates was determined using a BCA assay kit (Sigma-Aldrich, St. Louis, MO, USA) according to the manufacturer’s protocol.

Aβ = target: T2, Aβ (Homo sapiens, UniProt P05067); test: Aβ level in mouse brain tissue after i.c.v. oligomeric Aβ and HAEE (ELISA); type: in vivo; settings: C57BL/6 mice, HAEE 100 µM 1 μL i.c.v. days 1-3, n = 8
T2 construct: purchased Peptide Specialty Laboratories GmbH; host or cells: synthetic peptide
Protocol: (§1) After a recovery period, mice were randomly divided into two experimental groups using online GraphPad random number generator (Figure 1A, n = 8 per group): 1. The Aβ group received oligomeric Aβ and vehicle solution (ACSF). 2. The Aβ + HAEE group received oligomeric Aβ and the synthetic tetrapeptide HAEE (100 µM). The group allocation was unknown to the researchers who performed the neurosurgical procedures and ELISA.
(§2) On day 1, all mice received an intracerebroventricular (i.c.v.) injection of oligomeric Aβ (1 μL). Immediately after, mice received the first i.c.v. injection of either HAEE (1 μL) or ACSF (1 μL). Injections were repeated on days 2 and 3 (HAEE or ACSF only). All injections were performed on awake, freely moving mice through the guide cannula at a rate of 1 μL/min. […]
(§3) Aβ levels in the brain and cell lysates were measured by sandwich ELISA using BAM113cc capture antibodies (50 ng/well, HyTest, Moscow, Russia) and peroxidase-labeled BAM7cc antibodies (100 ng/well, HyTest, Moscow, Russia) as described in [46]. Aβ level was normalized to the protein concentration in the samples, measured using a Pierce™ BCA Protein Assay Kit (Thermo Fisher Scientific, Waltham, MA, USA). The rate of Aβ degradation was calculated as the difference in normalized Aβ level in the cells between the 48-hour and 24-hour time points divided by 24 h. […]

[1] = tested on: mixed primary culture of mouse brain cells; test: Aβ uptake and clearance in mixed primary culture of brain cells (ELISA); type: cell-based, C57BL/6 mouse; settings: Aβ 1 µM, HAEE 30 µM, n = 4
IL-6 = IL-6 level in mouse brain tissue after i.c.v. oligomeric Aβ and HAEE (ELISA); type: in vivo; settings: C57BL/6 mice; i.c.v. oligomeric Aβ day 1; HAEE 100 µM 1 μL i.c.v. days 1-3; ELISA of brain homogenate; vs Aβ + ACSF; n = 8
Protocol: IL-6 and TNFα in all samples were assessed using commercial ELISA kits (IL-6 Mouse Uncoated ELISA Kit, Mouse TNF alpha Uncoated ELISA Kit, Thermo Fisher Scientific, Waltham, MA, USA) according to the manufacturer’s instructions.

Aβ oligomers [2] = target: T3, Aβ oligomers (Homo sapiens, UniProt P05067); test: Oligomer-specific ELISA of Aβ; type: biochemical; settings: pre-formed Aβ oligomers in the presence vs absence of HAEE; BAM7cc capture and detection
T3 construct: purchased Peptide Specialty Laboratories GmbH; host or cells: synthetic peptide
Protocol: To measure Aβ oligomers using ELISA, two antibodies (a capture antibody and a detector antibody) targeting the same epitope are used. This method therefore allows for the detection of predominantly oligomeric forms of Aβ, which have epitopes available for binding to both the detection antibody and the capture antibody.
BAM7cc antibodies (HyTest, Moscow, Russia), which recognize the N-terminus of Aβ, were added to a 96-well ELISA plate (Wuxi NEST Biotechnology, Wuxi, China) in a volume of 100 μL (0.5 ng/μL) and incubated overnight at +4 °C. The wells of the plate were washed 3 times with 300 μL of PBST (0.05% Tween20) and blocked in 1% BSA (Diaem, Moscow, Russia) in PBST at room temperature and shaken for 1 h. The plate was then washed three times with 300 μL of PBST, and samples were added at a volume of 100 μL per well. The plates were incubated for 2 h at room temperature with shaking, washed 3 times with 300 μL of PBST, and HRP-conjugated BAM7cc antibodies (HyTest, Moscow, Russia) were added at a volume of 100 μL per well (1 ng/μL). The plates were incubated for 1 hour at room temperature with shaking, washed 5 times with 300 μL of PBST, and analyzed using TMB (Diaem, Moscow, Russia). Absorbance was measured at 450 nm using a Multiskan FC Microplate Photometer (Thermo Fisher Scientific, Waltham, MA, USA).

HMC3 cells [3] = test: Intracellular ROS and GSH in HMC3 cells by flow cytometry; type: cell-based, human; settings: Aβ + HAEE, 24 h
Protocol: The cells were stained with dihydrorhodamine 123 (Ex/Em = 507/525 nm) or monobromobimane (Ex/Em = 395/495 nm) according to ThermoFisher Scientific’s instructions. One minute prior to analysis, 10 μg/mL of propidium iodide (Ex/Em = 535/617 nm, Sigma, St. Louis, MO, USA) was added to the cell samples to evaluate the number of dead cells in the population. The analysis was performed using a BD LSR Fortessa flow cytometer (Becton Dickinson, Franklin Lakes, NJ, USA) and FlowJo^TM Software v.10.8.1 (Becton Dickinson, Franklin Lakes, NJ, USA).

HMC3 cells [4] = test: Lysosomal staining of HMC3 cells with LysoTracker Red DND-99; type: cell-based, human; settings: Aβ 1 μM + HAEE 30 μM, 24 h, 10 cells per field, n = 3
Protocol: Two hours prior to the completion of the incubation period, LysoTracker Red DND-99 (Thermo Fisher Scientific, Waltham, MA, USA) was added to the culture medium at a final concentration of 50 nM to label acidic compartments, including active lysosomes. Immediately before live-cell imaging, cell nuclei were counterstained with NucBlue Live Cell Stain (Thermo Fisher Scientific, Waltham, MA, USA) according to the manufacturer’s instructions. Fluorescent images were acquired using a Nikon Eclipse Ni-U (Nikon Corp., Tokyo, Japan) microscope with appropriate filter sets.

[5] = cited from earlier work
Source text: ApoE4 is the primary genetic risk factor for the sporadic form of AD. Unlike other ApoE isoforms, ApoE4 impairs TREM2-dependent microglial phagocytosis, promotes microglial activation, and contributes to chronic neuroinflammation in AD [41, 42].

Aβ oligomers [6] = target: T3, Aβ oligomers; test: Dynamic light scattering of Aβ oligomers; type: physicochemical; settings: Aβ 50 µM in PBS, 24 h 37 °C, then HAEE 500 µM for additional 24 h 37 °C; measured at 25 °C; triplicate
Protocol: The size distribution of Aβ oligomers was characterized by DLS using a Zetasizer Nano ZS instrument (Malvern Panalytical, Malvern, UK). Oligomeric Aβ was prepared as described in Section 4.6 and further incubated at a concentration of 50 µM in PBS for 24 h at 37 °C to promote oligomerization. To assess the effect of HAEE, the peptide was added to the pre-formed Aβ oligomers at a final concentration of 500 µM (dissolved in PBS), and the mixture was incubated for an additional 24 h at 37 °C. A control sample containing Aβ without HAEE was processed in parallel under identical conditions. Immediately prior to analysis, samples were briefly centrifuged to sediment any large aggregates and transferred to a disposable polystyrene cuvette (Sarstedt, Nümbrecht, Germany). Measurements were performed at 25 °C, and the hydrodynamic diameter (reported as Z-average) and polydispersity index (PDI) were derived from the correlation function using the Zetasizer Software version 7.13 (Malvern Panalytical, Malvern, UK). Each sample was measured in triplicate.

HMC3 cells [7] = test: IL-6 level in HMC3 supernatant (ELISA); type: cell-based, human; settings: Aβ 1 µM + HAEE 30 µM, 24 h, n = 3
Source text: Subsequently, cells were frozen in liquid nitrogen.

[8] = tested on: zinc-induced Aβ oligomers; parameters: method as in PMID 32872553, PMID 21081056; settings: binds to Aβ at the 11EVHH14 site; cited from earlier work
[9] = tested on: nicotinic α4β2 acetylcholine receptors; parameters: method as in PMID 34207317; settings: cited from earlier work
HMC3 cells [10] = test: Aβ degradation assay in HMC3 cells with exocytosis inhibitor GW4869; type: cell-based, human; settings: Aβ 1 µM 1 h, wash, then 3 h with 10 µM GW4869 ± 30 µM HAEE, ELISA, n = 3
Protocol: HMC3 cells were treated with 1 µM Aβ in serum-free culture medium for 1 h to allow for peptide internalization. Cells were then washed to remove extracellular Aβ. […] Aβ released into the cell culture medium during the degradation phase was also quantified by ELISA.

TNFα = TNFα level in mouse brain tissue after i.c.v. oligomeric Aβ and HAEE (ELISA); type: in vivo; settings: C57BL/6 mice; i.c.v. oligomeric Aβ day 1; HAEE 100 µM 1 μL i.c.v. days 1-3; ELISA of brain homogenate; n = 8
Protocol: as §1, §2, §3

HMC3 microglial cells = test: Aβ uptake and clearance in HMC3 microglial cells (ELISA); type: cell-based, human; settings: Aβ 1 µM, HAEE 30 µM, n = 6
bEnd.3 cells = test: BBB transwell model: Aβ passage through bEnd.3 monolayer; type: cell-based, mouse; settings: transwell 0.4 μm, Aβ 100 nM, HAEE 20 μM in abluminal compartment, serum-free DMEM, 37 °C, 24 h, ELISA, n = 5
Protocol: For the experiments, mouse bEnd.3 cells were seeded onto the upper surface of transwell inserts (Greiner Bio-One, Kremsmünster, Austria; pore size 0.4 μm) at a density of 70,000 cells per insert and cultured for 7 days to form a confluent monolayer. The volume of medium in the luminal (upper) compartment was 750 μL and in the abluminal (lower) compartment was 1 mL.
The luminal (upper) compartment contained 700 μL of serum-free DMEM. The plates were incubated at 37 °C and 5% CO2. Samples were collected from the luminal compartment at 24 h. […] To control model BBB integrity, paracellular permeability of the bEnd.3 monolayer was assessed using the fluorescent label sodium fluorescein (Sigma-Aldrich, St. Louis, MO, USA) in each experiment as described in [46].

[11] = tested on: primary astrocyte culture; test: Aβ uptake and clearance in primary astrocyte culture (ELISA); type: cell-based, C57BL/6 mouse; settings: Aβ 1 µM, HAEE 30 µM, n = 4

T3 sequence (P05067 672-713): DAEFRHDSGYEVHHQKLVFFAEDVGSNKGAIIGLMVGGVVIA
T2 sequence (P05067 672-713): as above
T1 sequence (Q91ZX7 20-4545): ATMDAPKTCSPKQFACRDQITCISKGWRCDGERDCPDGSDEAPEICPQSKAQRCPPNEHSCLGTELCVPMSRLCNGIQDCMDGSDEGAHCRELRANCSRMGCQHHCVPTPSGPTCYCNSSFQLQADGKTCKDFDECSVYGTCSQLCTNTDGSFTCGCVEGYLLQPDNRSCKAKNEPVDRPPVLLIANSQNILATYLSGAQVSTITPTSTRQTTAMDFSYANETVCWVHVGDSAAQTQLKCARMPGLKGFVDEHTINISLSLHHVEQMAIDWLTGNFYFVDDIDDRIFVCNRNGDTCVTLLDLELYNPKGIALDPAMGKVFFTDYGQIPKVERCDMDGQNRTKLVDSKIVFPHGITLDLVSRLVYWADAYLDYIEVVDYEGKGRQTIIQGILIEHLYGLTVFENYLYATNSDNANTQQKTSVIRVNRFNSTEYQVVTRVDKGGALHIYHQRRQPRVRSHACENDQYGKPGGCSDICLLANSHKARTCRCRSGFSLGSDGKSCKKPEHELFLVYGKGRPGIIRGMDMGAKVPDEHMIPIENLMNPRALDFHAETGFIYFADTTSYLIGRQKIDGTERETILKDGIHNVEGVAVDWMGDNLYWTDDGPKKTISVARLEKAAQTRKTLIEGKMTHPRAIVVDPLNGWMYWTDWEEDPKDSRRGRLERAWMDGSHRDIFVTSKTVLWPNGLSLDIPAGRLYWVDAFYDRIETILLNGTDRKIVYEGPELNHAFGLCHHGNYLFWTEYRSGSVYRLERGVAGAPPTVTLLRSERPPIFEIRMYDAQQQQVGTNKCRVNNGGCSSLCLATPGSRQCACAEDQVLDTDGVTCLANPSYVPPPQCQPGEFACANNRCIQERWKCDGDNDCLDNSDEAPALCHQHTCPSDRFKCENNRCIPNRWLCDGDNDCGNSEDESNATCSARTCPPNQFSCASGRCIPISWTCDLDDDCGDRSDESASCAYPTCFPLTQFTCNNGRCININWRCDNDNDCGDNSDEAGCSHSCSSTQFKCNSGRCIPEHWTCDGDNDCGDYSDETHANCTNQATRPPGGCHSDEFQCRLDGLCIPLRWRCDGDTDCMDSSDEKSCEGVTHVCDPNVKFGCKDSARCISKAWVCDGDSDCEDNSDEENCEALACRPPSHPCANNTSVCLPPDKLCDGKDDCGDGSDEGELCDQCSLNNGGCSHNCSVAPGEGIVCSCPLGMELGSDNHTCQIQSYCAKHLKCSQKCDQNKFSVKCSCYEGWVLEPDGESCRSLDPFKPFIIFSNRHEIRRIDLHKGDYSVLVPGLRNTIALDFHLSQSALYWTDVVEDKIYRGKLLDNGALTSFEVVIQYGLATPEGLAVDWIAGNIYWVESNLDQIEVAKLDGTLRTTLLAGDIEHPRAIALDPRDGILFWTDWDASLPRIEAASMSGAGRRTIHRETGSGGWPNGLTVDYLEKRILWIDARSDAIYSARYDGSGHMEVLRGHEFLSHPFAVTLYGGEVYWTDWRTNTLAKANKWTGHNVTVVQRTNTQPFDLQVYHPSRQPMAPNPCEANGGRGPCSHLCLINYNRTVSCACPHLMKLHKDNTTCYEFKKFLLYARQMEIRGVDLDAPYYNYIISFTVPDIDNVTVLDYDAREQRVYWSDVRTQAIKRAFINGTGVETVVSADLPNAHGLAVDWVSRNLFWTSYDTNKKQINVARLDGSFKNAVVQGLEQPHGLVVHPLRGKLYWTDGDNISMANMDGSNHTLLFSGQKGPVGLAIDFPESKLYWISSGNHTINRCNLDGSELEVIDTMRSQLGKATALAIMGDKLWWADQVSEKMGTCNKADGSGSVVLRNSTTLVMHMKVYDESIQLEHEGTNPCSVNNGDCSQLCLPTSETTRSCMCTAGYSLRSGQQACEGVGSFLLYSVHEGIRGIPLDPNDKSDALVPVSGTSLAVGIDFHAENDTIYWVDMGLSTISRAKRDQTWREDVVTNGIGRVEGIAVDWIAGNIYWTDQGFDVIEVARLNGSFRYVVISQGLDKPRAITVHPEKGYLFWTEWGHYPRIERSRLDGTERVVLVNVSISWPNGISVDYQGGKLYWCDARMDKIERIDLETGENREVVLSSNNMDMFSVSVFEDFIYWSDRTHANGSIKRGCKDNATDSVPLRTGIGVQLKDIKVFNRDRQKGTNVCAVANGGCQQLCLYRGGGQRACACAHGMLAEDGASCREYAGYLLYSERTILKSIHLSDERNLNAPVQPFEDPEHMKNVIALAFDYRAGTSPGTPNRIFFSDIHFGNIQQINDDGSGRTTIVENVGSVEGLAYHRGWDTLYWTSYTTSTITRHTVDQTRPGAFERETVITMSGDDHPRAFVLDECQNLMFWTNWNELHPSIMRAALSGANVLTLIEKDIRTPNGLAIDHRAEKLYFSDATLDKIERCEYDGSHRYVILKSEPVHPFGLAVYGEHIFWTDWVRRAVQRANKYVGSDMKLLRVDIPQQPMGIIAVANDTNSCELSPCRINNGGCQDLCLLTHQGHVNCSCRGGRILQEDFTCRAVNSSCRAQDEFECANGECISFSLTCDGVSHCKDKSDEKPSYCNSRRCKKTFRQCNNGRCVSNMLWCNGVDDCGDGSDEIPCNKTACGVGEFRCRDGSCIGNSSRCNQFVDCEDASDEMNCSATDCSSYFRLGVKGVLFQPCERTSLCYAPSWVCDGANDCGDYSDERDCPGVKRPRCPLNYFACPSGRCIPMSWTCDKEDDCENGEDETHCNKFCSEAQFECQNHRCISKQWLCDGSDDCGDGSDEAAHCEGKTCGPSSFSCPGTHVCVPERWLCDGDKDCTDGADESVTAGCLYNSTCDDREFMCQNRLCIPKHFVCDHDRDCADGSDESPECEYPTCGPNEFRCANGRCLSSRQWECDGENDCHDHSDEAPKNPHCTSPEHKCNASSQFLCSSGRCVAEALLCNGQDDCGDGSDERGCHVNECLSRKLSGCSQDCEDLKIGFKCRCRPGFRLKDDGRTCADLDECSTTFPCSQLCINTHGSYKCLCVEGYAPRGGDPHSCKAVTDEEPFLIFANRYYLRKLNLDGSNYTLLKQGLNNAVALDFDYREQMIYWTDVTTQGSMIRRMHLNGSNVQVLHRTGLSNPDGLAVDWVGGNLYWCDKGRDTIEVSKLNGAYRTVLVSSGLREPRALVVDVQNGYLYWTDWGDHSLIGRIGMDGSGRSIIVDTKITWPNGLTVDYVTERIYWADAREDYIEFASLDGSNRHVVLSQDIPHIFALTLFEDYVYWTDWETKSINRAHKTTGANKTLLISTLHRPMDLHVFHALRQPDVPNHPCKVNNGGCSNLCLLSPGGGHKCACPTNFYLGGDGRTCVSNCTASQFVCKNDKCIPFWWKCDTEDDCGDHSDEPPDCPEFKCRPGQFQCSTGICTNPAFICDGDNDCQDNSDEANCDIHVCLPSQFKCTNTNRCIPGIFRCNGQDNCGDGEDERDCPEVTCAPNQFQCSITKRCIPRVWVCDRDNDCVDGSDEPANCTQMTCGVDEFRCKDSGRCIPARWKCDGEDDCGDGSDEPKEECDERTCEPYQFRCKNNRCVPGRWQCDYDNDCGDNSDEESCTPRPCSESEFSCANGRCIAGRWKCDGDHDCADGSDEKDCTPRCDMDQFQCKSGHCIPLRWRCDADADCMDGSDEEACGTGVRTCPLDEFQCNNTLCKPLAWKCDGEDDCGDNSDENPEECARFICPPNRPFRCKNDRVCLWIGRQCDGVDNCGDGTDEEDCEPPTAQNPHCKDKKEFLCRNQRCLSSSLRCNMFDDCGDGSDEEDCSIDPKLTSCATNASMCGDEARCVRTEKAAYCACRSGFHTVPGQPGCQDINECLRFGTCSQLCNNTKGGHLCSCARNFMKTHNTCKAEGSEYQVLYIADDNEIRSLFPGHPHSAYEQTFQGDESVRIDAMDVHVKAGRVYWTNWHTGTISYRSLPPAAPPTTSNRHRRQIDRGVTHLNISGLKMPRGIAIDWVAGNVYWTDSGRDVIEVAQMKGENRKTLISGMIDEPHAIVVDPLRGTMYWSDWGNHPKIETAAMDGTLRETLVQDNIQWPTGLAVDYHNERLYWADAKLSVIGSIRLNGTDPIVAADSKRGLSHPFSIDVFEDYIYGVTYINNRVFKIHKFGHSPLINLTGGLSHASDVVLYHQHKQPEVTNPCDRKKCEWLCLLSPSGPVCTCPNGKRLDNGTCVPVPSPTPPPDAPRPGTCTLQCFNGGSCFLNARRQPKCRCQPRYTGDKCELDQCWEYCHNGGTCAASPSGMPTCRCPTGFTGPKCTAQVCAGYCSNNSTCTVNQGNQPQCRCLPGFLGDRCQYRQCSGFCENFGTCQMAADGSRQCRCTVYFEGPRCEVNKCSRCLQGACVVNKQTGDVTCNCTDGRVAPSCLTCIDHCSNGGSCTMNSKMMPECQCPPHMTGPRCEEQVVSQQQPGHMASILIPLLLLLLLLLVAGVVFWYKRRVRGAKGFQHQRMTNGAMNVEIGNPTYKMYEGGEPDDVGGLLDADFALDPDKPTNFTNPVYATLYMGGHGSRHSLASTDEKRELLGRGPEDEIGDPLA

## CC(=O)N[C@@H](Cc1c[nH]cn1)C(=O)N[C@@H](C)C(=O)N[C@@H](CCC(=O)O)C(=O)N[C@@H](CCC(=O)O)C(N)=O [HAEE, Acetyl-HAEE-Amide] (Ac-HAEE-NH2)
LRP1
  reduction of Aβ uptake by endothelial cells on blocking LRP1, in the presence of HAEE: 30%
Aβ; 8-month-old, i.c.v. oligomeric Aβ 1 μL day 1, brain lysate ELISA 30 min after final injection, vs Aβ + ACSF
  reduction of Aβ level in mouse brain tissue: 35%
Aβ; i.c.v. oligomeric Aβ day 1, ELISA
  Aβ level in the brain of mice treated with HAEE compared to animals that did not receive the tetrapeptide: reliably reduced
[1]; clearance rate = difference of Aβ level 48 h vs 24 h divided by 24 h
  effect on Aβ clearance by the cells at 24–48 h: notably accelerated
[1]; medium without FBS, ELISA
  effect on intracellular Aβ level at 4–24 h: did not significantly affect
IL-6
  decrease in IL-6 levels in mouse brain tissue: 40%
Aβ oligomers [2]
  amount of Aβ oligomers (oligomer-specific ELISA): reduced the amount of Aβ oligomers
HMC3 cells [3]; dihydrorhodamine 123, n = 4
  effect on Aβ-induced change in reactive oxygen species (ROS) level: completely prevented
HMC3 cells [3]; monobromobimane, n = 4
  effect on Aβ-induced change in reduced glutathione (GSH) level: completely prevented
HMC3 cells [4]
  effect on Aβ-induced changes in lysosomes (size and number): completely abolished
[5]
  toxicity: non-toxic
Aβ oligomers [6]
  average size of Aβ oligomers (DLS): reduced their average size
HMC3 cells [7]
  effect on Aβ-induced increase in IL-6 level: effectively inhibited
[8]
  formation of toxic, zinc-induced Aβ oligomers: blocks
[9]
  effect on the inhibitory effect of Aβ42 on nicotinic α4β2 acetylcholine receptors: completely abolishes
HMC3 cells [10]
  reduction of intracellular Aβ level, HAEE + GW4869 compared to GW4869 alone: 40%
TNFα
  effect on TNFα levels in mouse brain tissue: no effect
HMC3 microglial cells; 24–48 h period
  rate of Aβ clearance: doubled
HMC3 microglial cells; ELISA
  amount of intracellular Aβ after 24 h and 48 h of incubation compared to cells not treated with HAEE: significantly reduced
bEnd.3 cells
  rate of Aβ passage across the BBB from abluminal to luminal compartment: significantly increased
[11]; 24–48 h period
  effect on the rate of Aβ clearance: did not affect
[11]; ELISA
  level of intracellular Aβ after 24–48 h of incubation compared to cells treated with Aβ alone: decreased

## O=C(/C=C/c1ccc(/C=C/C(=O)Nc2ccc(C3=NCCN3)cc2)cc1)Nc1ccc(C2=NCCN2)cc1 [GW4869, reference compound]
HMC3 cells [10]
  effect of GW4869 on HAEE-dependent Aβ clearance in microglial cells: did not prevent the effect of HAEE
